Data set [1] relates to PC-3 cells. The data set can be described thus: Colony formation of PC-3 cells in soft agar. Type of data set: cell-based, human. The conditions noted are these: 5 μM; 12 days. How it is done: To confirm the inhibition of the cell growth observed on plastic with the PC-3 cells, the inventors tested the effect of dermaseptin B2 on the ability of the PC-3 cells to multiply independently of anchoring by forming colonies in agar. For this assay, the cells were seeded at a density of 2.5×10^3 cells par cm^2 diluted in complete culture medium (RPMI supplemented with 5% foetal calf serum) containing 0.35% agar and varying concentrations of dermaseptin B2, in 12-well dishes containing 1 ml of solidified 0.6% agar. The same variable concentrations of dermaseptin B2 were also added to the complete culture medium deposited on top of the cultures on the day of seeding, and twice per week. After incubation for 12 days at 37° C. in an incubator saturated with water vapour and containing 7% CO2, the colonies having a diameter larger than […] were counted. Each measurement was performed in triplicate and each experiment was repeated three times.

Data set [2] concerns adult bovine aortic endothelial cells (ABAE). The data set can be described thus: Proliferation of ABAE endothelial cells on plastic. Type of data set: cell-based. The conditions noted are these: with 5 ng/ml FGF-2; count on 7th day. How it is done:
The angiostatic activity of dermaseptin B2 was assessed for its capacity to inhibit firstly the proliferation of adult bovine aortic endothelial cells (ABAE) on plastic and secondly the formation of pseudo capillaries by these same cells in collagen gel. For the proliferation test the ABAE cells were seeded in 24-well plates at a density of 10^4 cells/well in DMEM medium supplemented with 10% foetal calf serum and 5 ng/ml of FGF-2. […] On the 7th day the cell count was estimated by staining with crystal violet.

Data set [3] concerns ABAE cells. Description: Formation of pseudo capillaries by ABAE cells on collagen 1 gel (Montessano test). Type of data set: cell-based, bovine. The conditions noted are these: 5 μM. The protocol:
The effect of dermaseptin B2 on the formation of pseudo capillaries was assessed through use of the Montessano test. This test allows evaluation of the differentiation of ABAE cells to pseudo capillaries when seeded in a monolayer on collagen 1 gel. For this assay, ABAE cells were seeded in 24-well plates on a monolayer of collagen 1 to the proportion of 10^5 cells/well in DMEM medium supplemented with 10% foetal calf serum. 24 hours after seeding, 20 ng/ml of FGF-2 were added to the cells in the absence or presence of varying concentrations of dermaseptin B2. This treatment was renewed for two days and the formation of a network of pseudo capillaries was assessed 24 hours later by observation under phase contrast microscope measuring the number of capillaries formed per field of observation (FIGS. 5C and D).

Data set [4] has as its system Gram+ and Gram− bacteria, yeasts, protozoa and filamentous fungi. The conditions noted are these: micromolar doses; cited from earlier work.
Data set [5] concerns Raji cells. The data set can be described thus: Growth of non-adherent B-lymphoma line Raji, crystal violet cell count. In kind it is cell-based, human. The conditions noted are these: 10 μM; count on 7th day. The protocol:
(§1) Dermaseptin B2 was also tested on the growth of two non-adherent lines derived from human B-lymphoma: the Raji and LB-EBV lines. The cells were seeded at 10^4 cells per well in 0.5 ml of RPMI medium supplemented with 2.5% of decomplemented foetal calf serum. 24 hours after seeding, the cells were treated with different concentrations of dermaseptin B2. […] On the 7th day, the cell count was estimated by staining with crystal violet as described previously.

For data set [6], the system named is LB-EBV cells. The data set can be described thus: Growth of non-adherent B-lymphoma line LB-EBV, crystal violet cell count. Type of data set: cell-based, human. The conditions noted are these: 10 μM; count on 7th day. How it is done:
as §1

The subject of data set [7] is receptor of adenosin A1. The conditions noted are these: cited from earlier work.
Data set [8] concerns PC-3 cells. Description: Annexin V FITC / propidium iodide double labelling, flow cytometry. In kind it is cell-based, human. The conditions noted are these: 2.5 μM. The source says:
During the proliferation assays of PC-3 or ABAE cells, in the presence of dermaseptin B2, the rapidly observed inhibitor effect and the non-refringence of the treated cells leads to assuming that dermaseptin B2 could have a cytotoxic role or cell death inducing role rather than blocking the growth of sensitive cells. To determine whether dermaseptin B2 could induce apoptosis of sensitive cells, the inventors conducted double labelling experiments with Annexin V and propidium iodide on PC-3 cells in culture on plastic and treated or not treated with dermaseptin B2. These experiments were followed by flow cytometry analysis of the labelled cells.
For this purpose, the cells were seeded in 6-well plates in the absence or presence of 2.5 μM of dermaseptin B2 for 24 or 72 hours. The cells were then detached, washed with cold PBS and re-suspended in 100 μl of fixing buffer (MACs, Miltenyi Biotec) containing Annexin V FITC for 10 min in the dark. After washings in PBS, the cells were again labelled by incubation in a fixing buffer containing a final concentration of 1 μg/ml of propidium iodide (PI) for 5 min in the dark. After further washings the cells were analyzed by passing through a flow cytometer (FACScan, Becton Dickinson Labware) (FIGS. 10 and 11).
A general note: Flow cytometry measures light scatter and fluorescence of single cells or particles in a stream.

The test system of data set [9] is mouse embryo cells (CES). The protocol:
(§2) The anti-proliferative activity of dermaseptin B2 was assessed in vitro on different types of cells: PC-3 adenocarcinoma cells and G1947 human prostatic hyperplasia cells, and on mouse embryo cells (CES). The different types of cells were seeded in 24-well plates at […] in 0.5 ml of culture medium (RPMI supplemented with 5% foetal calf serum for the PC-3 and G1947 cells, or DMEM supplemented with 10% foetal calf serum for the CES cells). After 24 hours, the cells were treated with different doses of dermaseptin B2. The treatment was then renewed at days 3 and 5 after seeding of the cells. On the 6th day, an estimated cell count was performed by staining with crystal violet. The cells were rinsed with PBS, fixed on plastic by dehydration with absolute ethanol, and then stained with a 0.2% solution of crystal violet in 2% ethanol for 15 min. After washing, the cells were solubilised with 1% SDS solution. The optical density (OD) of the crystal violet was measured using a spectrophotometer at 595 nm. A standard range was produced for conversion of OD-number of cells.

Data set [10] relates to G1947 human prostatic hyperplasia cells. The protocol: as §2
The test system of data set [11] is tumours induced by injection of PC-3. The data set can be described thus: Growth of PC-3 xenograft tumours in nude mice. In kind it is in vivo. The protocol: Batches of 10 nude mice (nude/nude, Laboratoire IFFA CREDO) were injected with 2×10^6 PC-3 cells. One week after injection of the cells, the animals having a palpable tumour were randomly distributed per cage to be treated by injection into the tumour with 100 μl per day of PBS solution (control batch) or with a solution of dermaseptin B2 diluted in PBS. Dermaseptin B2 was injected at a concentration of 5 mg/kg the first week of treatment, then this dose was reduced to 0.5 mg/kg for 12 days. […] As control, a batch of mice was also treated with Taxol® (paclitaxel, Bristol-Myers Squibb) twice per week via intra-peritoneal injection at 10 mg/kg. The size of the tumours was measured using a calliper twice a week up until sacrifice of the animals 29 days after the beginning of treatment. After sacrifice, the tumours were removed and weighed.

Ends that are not written are not given here.

For “GLWSKIKEVGKEAAKAAAKAAGKAALGAVSEAV [dermaseptin B2]”, in data set [1], the “growth of PC-3 cells on soft agar (colonies)” value is listed as “fully inhibits growth”. Also, in [2], the “inhibition of growth of ABAE cells” value was “dose-dependent and full inhibition”. The “formation of pseudo capillaries induced by FGF-2” value in [3] (20 ng/ml FGF-2) is on record as “strongly inhibits”. The “cytotoxic effect on the monolayer of ABAE cells” value in data set [3] (pseudo capillary assay) is given as “did not have any cytotoxic effect”. Moreover, in [4], the “killing of Gram+ and Gram− bacteria, yeasts, protozoa and filamentous fungi” value is given as “rapidly kills”. Moreover, in data set [5], the “inhibition of growth of Raji cells” value is on record as “about 95”. Further, the “inhibition of growth of LB-EBV cells” value in [6] is listed as “about 95”. Also, the “effect on binding of agonists with the receptor of adenosin A1” value in [7] is “increase the binding of agonists”. Further, the “increase of percentage of cells labelled solely with PI (necrosis)” value in data set [8] was 3 times. Also, in data set [8] (24 h), the “increase in cells labelled twofold with Annexin V and PI (apoptosis)” value is “about 30%”; the “increase of percentage of cells only labelled with Annexin V (early apoptosis)” value was 5 times; the “percentage of non-labelled cells” value was “dropped suddenly in the same proportions”. For the same compound, the “percentage of cells labelled twofold with Annexin V and PI, 72 h versus 24 h” value in data set [8] (72 h) was “does not change”. In data set [9], the “cell detachment during treatment, embryo (CES) cells” value is “no cell detachment was observed”. Moreover, the “cell detachment during treatment, G1947 cells” value in data set [10] is given as “no cell detachment was observed”. The “mice with full disappearance of the tumour” value in [11] (batches of 10 mice, after sacrifice at day 29) is recorded as 3 mice.
Turning to `CC(=O)O[C@H]1C(=O)[C@@]2(C)[C@H]([C@H](OC(=O)c3ccccc3)[C@]3(O)C[C@H](OC(=O)[C@H](O)[C@@H](NC(=O)c4ccccc4)c4ccccc4)C(C)=C1C3(C)C)[C@]1(OC(C)=O)CO[C@@H]1C[C@@H]2O` [Taxol®, paclitaxel, reference compound], the “inhibition of tumour growth (tumour volume) compared with non-treated tumours” value in [11] (intra-peritoneal 10 mg/kg twice per week, 29 days of treatment) is 36%.

The values above are taken from patent publication US20140369987A1, “DERMASEPTIN B2 USED AS AN INHIBITOR OF THE GROWTH OF A TUMOR” (Centre National de la Recherche Scientifique (C.N. R.S), priority 2009, published 2014).
